Results from patent publication US5589500A, “Substituted 1,1,2-triphenylbutenes and their use in the treatment of cancer” (priority 1992, dated 1996).
Where two headings read alike, the source gives them in different places.

Tests used:
oestrogen receptor = conditions: rat uterine cytosol competitive binding assay; J. Med. Chem. 25, 167-171 (1982); cited from earlier work
[1] = system: MCF-7 human breast cancer cell line; assay: Short term in vitro cytotoxicity against MCF-7 human breast cancer cell line; conditions: MCF7, read-out: Short Term in vitro cytotoxicity MCF-7 IC50 ± SD
Method: For some compounds, cytotoxicity against the MCF-7 human breast cancer cell line was determined.

[2] = molecular target: calmodulin dependent cAMP-PDE (Homo sapiens, UniProt P0DP23); assay: Antagonism of calmodulin dependent cAMP-PDE (inhibiting the activation of cyclic AMP phosphodiesterase by calmodulin); assay type: biochemical
oestrogen receptor (ER) = molecular target: T1, oestrogen receptor (ER) (Rattus norvegicus, UniProt P06211); assay: Relative binding affinity for the oestrogen receptor, rat uterine cytosol competitive binding assay
T1 construct: from tissue; host or cells: rat uterine cytosol
T1 sequence (P06211 1-600): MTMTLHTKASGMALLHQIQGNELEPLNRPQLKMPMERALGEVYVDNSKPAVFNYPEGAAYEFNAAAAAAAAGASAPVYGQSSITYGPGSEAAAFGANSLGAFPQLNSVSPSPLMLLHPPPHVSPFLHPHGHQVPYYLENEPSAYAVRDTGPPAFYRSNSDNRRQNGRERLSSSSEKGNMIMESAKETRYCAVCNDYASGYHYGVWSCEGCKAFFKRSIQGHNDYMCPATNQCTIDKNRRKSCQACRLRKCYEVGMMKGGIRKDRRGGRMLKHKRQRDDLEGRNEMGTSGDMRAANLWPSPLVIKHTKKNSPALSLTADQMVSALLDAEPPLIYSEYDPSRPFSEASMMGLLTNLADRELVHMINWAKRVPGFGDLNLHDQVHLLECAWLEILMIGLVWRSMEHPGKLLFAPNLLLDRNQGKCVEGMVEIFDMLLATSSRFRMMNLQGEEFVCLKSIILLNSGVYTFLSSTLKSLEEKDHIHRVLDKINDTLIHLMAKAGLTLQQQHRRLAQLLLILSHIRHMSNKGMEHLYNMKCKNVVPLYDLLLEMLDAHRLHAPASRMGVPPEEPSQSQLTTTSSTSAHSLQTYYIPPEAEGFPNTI
Method: For some compounds, cytotoxicity against the MCF-7 human breast cancer cell line was determined. The test methods used were those described by M. G. Rowlands et al., Biochemical Pharmacology 40, 283-289 (1990). The relative binding offinity (RBA) for the oestrogen receptor (ER) was measured in a rat uterine cystosol competitive binding assay as described by A. E. Wakeling, 1987 (Chapter 7 p219-236 in "STEROID HORMONES--A PRACTICAL APPROACH" Eds B. Green and R. E. Leake, IRL Press Ltd, Oxford, UK).

[3] = system: receptor from calf uterine cytosol; conditions: calf uterine cytosol (oestradiol = 100); J. Med. Chem. 32, 2527-2533 (1989); cited from earlier work
rat uterine receptor = conditions: Cancer Research 51, 5851-5858 (1991); cited from earlier work
[4] = ± SD, read-out: Antagonism of calmodulin dependent cAMP-PDE IC50 ± SD

Structure (SMILES)	IC50 [2, 4] [nM]	binding affinity for the oestrogen receptor compared with pyrrolidino tamoxifen itself (n=2) (oestrogen receptor)	IC50 [1] [nM]	Binding affinity for ER, RBA (oestrogen receptor (ER))	IC50 [2] [nM]	RBA with receptor from calf uterine cytosol [3]	RBA for rat uterine receptor (rat uterine receptor)
CC/C(=C(\c1ccccc1)c1ccc(OCCCN2CCCC2)cc1)c1ccccc1		lower binding affinity for the oestrogen receptor					
CC/C(=C(\c1ccc(I)cc1)c1ccc(OCCCCN2CCCC2)cc1)c1ccccc1 [n = 4, NR^1 = R^2 = pyrrolidino, E-1(4-(4-(N-pyrrolidino)butoxy)phenyl)-1-(4-iodophenyl)-2-phenylbutene]	1010 ± 80		3990 ± 600	9			
CC/C(=C(\c1ccccc1)c1ccc(OCCN(C)C)cc1)c1ccccc1 [Tamoxifen]			14000 ± 1000		6750 ± 1060	1	5
CC/C(=C(\c1ccc(I)cc1)c1ccc(OCCCCN(C)C)cc1)c1ccccc1 [n = 4, R^1 = R^2 = CH3, E-1-(4-(4-(Dimethylamino)butoxy)phenyl)-1-(4-iodophenyl)-2-phenyl-1-butene]	2250 ± 180			25			
C[C@]12CC[C@@H]3c4ccc(O)cc4CC[C@H]3[C@@H]1CC[C@@H]2O [17β-estradiol]						100	

Further lines, with some results ahead:

IC50 [2, 4] [nM]	Structure (SMILES)	binding affinity for the oestrogen receptor compared with pyrrolidino tamoxifen itself (n=2) (oestrogen receptor)	IC50 [1] [nM]	Binding affinity for ER, RBA (oestrogen receptor (ER))	IC50 [2] [nM]	RBA with receptor from calf uterine cytosol [3]	RBA for rat uterine receptor (rat uterine receptor)
2020 ± 170	CC/C(=C(\c1ccc(I)cc1)c1ccc(OCCCN(C)C)cc1)c1ccccc1 [n = 3, R^1 = R^2 = CH3, E-1-(4-(3-(Dimethylamino)propoxy)phenyl)-1-(4-1iodophenyl)-2,phenyl-1-butene]						
2300 ± 420	CC/C(=C(\c1ccc(I)cc1)c1ccc(OCCN(C)C)cc1)c1ccccc1 [4-iodotamoxifen]		7630 ± 60			5	12.5
260 ± 50	CC/C(=C(\c1ccc(I)cc1)c1ccc(OCCCCCCCCN2CCCC2)cc1)c1ccccc1 [n = 8, NR^1 = R^2 = pyrrolidino]			4			
1450 ± 80	CC/C(=C(\c1ccc(I)cc1)c1ccc(OCCN2CCCC2)cc1)c1ccccc1 [Idoxifene]		7270 ± 380			5	12.5
1110 ± 70	CC/C(=C(\c1ccc(I)cc1)c1ccc(OCCCN2CCCC2)cc1)c1ccccc1 [n = 3, NR^1 = R^2 = pyrrolidino, E-1-(4-(3-(N-pyrrolidino)propoxy)phenyl)-1-(4-iodophenyl)-2-phenyl-1-butene]		4500 ± 70	23			
